In patent US8748412B2, “Phenylalanine derivatives and their use as non-peptide GLP-1 receptor modulators” (Argusina Bioscience Inc., priority 2011, dated 2014):
Read-outs that look alike come from different tables or passages of the source. Blank lines part the entries; values can stand above or below the compound they belong to.

Molecular target: T1, human GLP1R (Homo sapiens, UniProt P43220)
T1 construct: expressed in transfected cells; host or cells: CHO cells (ATCC), transient transfection with pCMV-human GLP1R
Assay: Human GLP-1 receptor transfected cell assay (MRE/CRE-luciferase reporter gene, agonist activity)
Assay type: cell-based
Conditions: 6 h; for activation at 3 µM: concentration 3 μM; for activation at 3.16 µM: concentration 3.16 μM; for activation at 1 µM: concentration 1 μM
How it was run: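 CHO cells transiently co-transfected with human GLP1R and MRE/CRE-driven luciferase reporter plasmids. Compound or GLP-1 (7-36 amide) standard dilution series added for 6 h at 37 °C, 5% CO2. Agonist activity read as Bright-Glo luciferase luminescence.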

[1] = read-out: Activity (agonist), percentage of the activity of the control
[2] = concentration 10 μM, read-out: Activity (agonist), percentage of the activity of the control
[3] = conc. 10 μM, percentage of the activity of the control, read-out: Agonist Activity

T1 sequence (P43220 24-463): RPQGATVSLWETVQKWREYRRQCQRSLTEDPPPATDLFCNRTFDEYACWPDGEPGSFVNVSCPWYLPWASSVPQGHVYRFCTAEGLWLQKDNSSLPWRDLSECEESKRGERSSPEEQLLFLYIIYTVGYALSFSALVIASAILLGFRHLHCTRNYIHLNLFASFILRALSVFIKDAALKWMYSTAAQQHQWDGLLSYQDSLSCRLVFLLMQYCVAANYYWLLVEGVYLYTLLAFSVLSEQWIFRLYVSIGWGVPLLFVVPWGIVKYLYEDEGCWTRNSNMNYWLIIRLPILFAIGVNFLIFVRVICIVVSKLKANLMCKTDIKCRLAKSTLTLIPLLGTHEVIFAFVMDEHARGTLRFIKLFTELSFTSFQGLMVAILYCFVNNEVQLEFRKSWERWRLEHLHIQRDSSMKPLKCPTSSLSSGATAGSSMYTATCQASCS

Compound: CC(C)c1ccc(-c2cccc(C(=O)N[C@H](Cc3ccc(-c4noc(-c5ccc(NC(=O)OC(C)(C)C)cc5)n4)c(F)c3)C(=O)O)c2)cc1 [Compound 6D]
activation at 3 µM [1]: 20 to 40%

Compound: Cc1ccc(-c2ccc(C(=O)NC(Cc3ccc(F)c(C#Cc4ccc(NC(=O)OC(C)(C)C)cc4)c3)C(=O)O)o2)cc1 (stereo not shown) [Compound 6E]
activation at 3.16 µM [1]: > 60%

Compound: CC(C)(C)OC(=O)Nc1ccc(-c2nc(-c3ccc(C[C@@H](NC(=O)c4cccc(-c5ccc(Cl)c(F)c5)c4)C(=O)O)cc3F)no2)cc1 [Compound 6F]
activation at 10 µM [2]: > 60%

Compound: CC(C)(C)OC(=O)Nc1ccc(-c2nc(-c3ccc(C[C@@H](NC(=O)c4ccc(-c5ccc(C6CC6)cc5)o4)C(=O)O)cc3F)no2)cc1 [Compound 6G]
activation at 1 µM [1]: 40 to 60%

Compound: Cc1ccc(-c2cccc(C(=O)N[C@H](Cc3ccc(-c4noc(-c5ccc(NC(=O)OC(C)(C)C)cc5)n4)c(F)c3)C(=O)O)c2)cc1Cl [Compound 6H]
activation at 3.16 µM [1]: > 60%

Compound: Cc1ccc(-c2cccc(C(=O)N[C@H](Cc3ccc(-c4noc(-c5ccc(NC(=O)OC(C)(C)C)cc5)n4)c(F)c3)C(=O)O)c2)o1 [Compound 6I]
activation at 3 µM [1]: 20 to 40%

Compound: Cc1ccc(-c2cccc(C(=O)N[C@H](Cc3ccc(-c4noc(-c5ccc(NC(=O)OC(C)(C)C)cc5)n4)c(F)c3)C(=O)O)c2)s1 [Compound 6J]
activation at 10 µM [2]: > 60%

Compound: CC(C)Oc1ccc(-c2cccc(C(=O)N[C@H](Cc3ccc(-c4noc(-c5ccc(NC(=O)OC(C)(C)C)cc5)n4)c(F)c3)C(=O)O)c2)cc1 [Compound 6K]
activation at 10 µM [2]: > 60%

Compound: Cc1ccc(-c2cccc(C(=O)N[C@H](Cc3ccc(-c4noc(-c5ccc(NC(=O)OC(C)(C)C)cc5)n4)c(F)c3)C(=O)O)c2)cc1F [Compound 6L]
activation at 1 µM [1]: 20 to 40%

Compound: COc1ccc(C#CC(=O)N[C@H](Cc2ccc(-c3noc(-c4ccc(NC(=O)OC(C)(C)C)cc4)n3)c(F)c2)C(=O)O)cc1 [Compound 6M]
activation at 10 µM [2]: 20 to 40%

Compound: CC(C)Oc1ccc(-c2ccc(C(=O)N[C@H](Cc3ccc(-c4noc(-c5ccc(NC(=O)OC(C)(C)C)cc5)n4)c(F)c3)C(=O)O)o2)cc1 [Compound 6N]
activation at 3 µM [1]: 40 to 60%

Compound: CC(C)Oc1ccc(-c2ccc(C(=O)N[C@H](Cc3ccc(-c4noc(-c5ccc(NC(=O)OC(C)(C)C)cc5)n4)c(F)c3)C(=O)O)o2)cc1F [Compound 6O]
activation at 1 µM [1]: 20 to 40%

Compound: CC(C)(C)OC(=O)Nc1ccc(-c2nc(-c3ccc(C[C@@H](NC(=O)c4cccc(-c5ccccc5F)c4)C(=O)O)cc3F)no2)cc1 [Compound 6P]
activation at 1 µM [1]: 40 to 60%

Compound: Cc1ccc(-c2ccc(C(=O)N[C@H](Cc3ccc(-c4noc(-c5ccc(NC(=O)OC(C)(C)C)cc5)n4)cn3)C(=O)O)o2)cc1 [Compound 6Q]
activation at 1 µM [1]: 40 to 60%

Compound: Cc1ccc(-c2ccc(C(=O)N[C@H](Cc3ccc(-c4noc(-c5ccc(NC(=O)OC(C)(C)C)cc5)n4)c(C)c3)C(=O)O)o2)cc1 [Compound 6R]
activation at 1 µM [1]: > 60%

Compound: Cc1cc(C[C@@H](NC(=O)c2ccc(-c3ccc(Cl)cc3F)o2)C(=O)O)ccc1-c1noc(-c2ccc(NC(=O)OC(C)(C)C)cc2)n1 [Compound 6S]
activation at 1 µM [1]: 20 to 40%

Compound: CC(C)(C)OC(=O)Nc1ccc(-c2nc(-c3ccc(C[C@@H](NC(=O)c4cccc(C#CC5CC5)c4)C(=O)O)cc3F)no2)cc1 [Compound 6T]
activation at 1 µM [1]: 20 to 40%

Compound: Cc1csc(-c2cccc(C(=O)N[C@H](Cc3ccc(-c4noc(-c5ccc(NC(=O)OC(C)(C)C)cc5)n4)c(F)c3)C(=O)O)c2)c1 [Compound 6U]
activation at 3 µM [1]: 40 to 60%

Compound: CC(C)c1ccc(-c2ccc(C(=O)N[C@H](Cc3ccc(F)c(-c4noc(-c5ccc(NC(=O)OC(C)(C)C)cc5)n4)c3)C(=O)O)o2)cc1 [Compound 6V]
activation at 1 µM [1]: 20 to 40%

Compound: COc1ccc(C[C@@H](NC(=O)c2ccc(-c3ccc(C)cc3)o2)C(=O)O)cc1-c1noc(-c2ccc(NC(=O)OC(C)(C)C)cc2)n1 [Compound 6W]
activation at 3 µM [1]: 20 to 40%

Compound: Cc1ccc(-c2ccc(C(=O)N[C@H](Cc3cc(F)cc(-c4noc(-c5ccc(NC(=O)OC(C)(C)C)cc5)n4)c3)C(=O)O)o2)cc1 [Compound 6X]
activation at 3 µM [1]: 40 to 60%

Compound: Cc1ccc(-c2ccc(C(=O)N[C@H](Cc3cc(Br)cc(-c4noc(-c5ccc(NC(=O)OC(C)(C)C)cc5)n4)c3)C(=O)O)o2)cc1 [Compound 6Y]
activation at 1 µM [1]: > 60%

Compound: Cc1ccc(-c2ccc(C(=O)N[C@H](Cc3ccc(C)c(-c4noc(-c5ccc(NC(=O)OC(C)(C)C)cc5)n4)c3)C(=O)O)o2)cc1 [Compound 6Z]
activation at 1 µM [1]: 40 to 60%

Compound: Cc1ccc(-c2ccc(C(=O)NC(Cc3cc(F)cc(C#Cc4ccc(NC(=O)OC(C)(C)C)cc4)c3)C(=O)O)o2)cc1 (stereo not shown) [Compound 7E]
activation at 1 µM [1]: > 60%

Compound: Cc1ccc(-c2cccc(C(=O)N[C@@H](Cc3ccc(-c4noc(-c5ccc(NC(=O)OC(C)(C)C)cc5)n4)c(F)c3)C(=O)O)c2)cc1 [Compound 8E]
activation at 3 µM [1]: > 60%

Compound: Cc1cc(-c2ccc(C(=O)N[C@H](Cc3ccc(-c4noc(-c5ccc(NC(=O)OC(C)(C)C)cc5)n4)c(F)c3)C(=O)O)o2)ccc1F [Compound 9E]
activation at 1 µM [1]: > 60%

Compound: Cc1cc(-c2ccc(C(=O)N[C@@H](Cc3ccc(-c4noc(-c5ccc(NC(=O)OC(C)(C)C)cc5)n4)c(F)c3)C(=O)O)o2)ccc1F [Compound 10E]
activation at 1 µM [1]: > 60%

More lines, now with the values ahead:

activation at 10 µM [3]: 20 to 40%
Compound: CC(C)c1ccc(S(=O)(=O)NC(Cc2ccc(-c3noc(-c4ccc(NC(=O)OC(C)(C)C)cc4)n3)c(F)c2)C(=O)O)cc1 (stereo not shown) [Compound 11C]

activation at 10 µM [3]: 20 to 40%
Compound: Cc1ccc(CNC(=O)C(Cc2ccc(OC(=O)c3ccc(NC(=O)OC(C)(C)C)cc3)c(F)c2)c2nnn[nH]2)cc1 (stereo not shown) [Compound 11D]

activation at 3.16 µM [1]: > 60%
Compound: Cc1ccc(-c2ccc(C(=O)N[C@H](Cc3ccc(-c4noc(-c5ccc(NC(=O)OC(C)(C)C)cc5)n4)c(F)c3)C(=O)O)o2)cc1 [Compound 11E]

activation at 10 µM [3]: 40 to 60%
Compound: Cc1ccc(S(=O)(=O)NC(Cc2ccc(-c3noc(-c4ccc(NC(=O)OC(C)(C)C)cc4)n3)c(F)c2)C(=O)O)cc1Cl (stereo not shown) [Compound 11F]

activation at 10 µM [3]: > 60%
Compound: CC(C)(C)OC(=O)Nc1ccc(-c2nc(-c3ccc(CC(NC(=O)c4ccc(-c5ccc([N+](=O)[O-])cc5)o4)C(=O)O)cc3F)no2)cc1 (stereo not shown) [Compound 11G]

activation at 10 µM [3]: 40 to 60%
Compound: CC(C)(C)OC(=O)Nc1ccc(-c2nc(-c3ccc(CC(NS(=O)(=O)c4ccc([N+](=O)[O-])cc4)C(=O)O)cc3F)no2)cc1 (stereo not shown) [Compound 11H]

activation at 10 µM [3]: 40 to 60%
Compound: Cc1cc(C)c(S(=O)(=O)NC(Cc2ccc(-c3noc(-c4ccc(NC(=O)OC(C)(C)C)cc4)n3)c(F)c2)C(=O)O)c(C)c1 (stereo not shown) [Compound 11I]

activation at 10 µM [3]: > 60%
Compound: CC(C)(C)OC(=O)Nc1ccc(-c2nc(-c3ccc(CC(NS(=O)(=O)c4cccc5cccnc45)C(=O)O)cc3F)no2)cc1 (stereo not shown) [Compound 11J]

activation at 10 µM [3]: > 60%
Compound: CC(C)(C)OC(=O)Nc1ccc(-c2nc(-c3ccc(CC(NS(=O)(=O)c4ccc(-c5ccccc5)cc4)C(=O)O)cc3F)no2)cc1 (stereo not shown) [Compound 11K]

activation at 10 µM [3]: 20 to 40%
Compound: CC(C)(C)OC(=O)Nc1ccc(-c2nc(-c3ccc(CC(NS(=O)(=O)c4ccc(OC(F)(F)F)cc4)C(=O)O)cc3F)no2)cc1 (stereo not shown) [Compound 11L]

activation at 10 µM [3]: > 60%
Compound: CC(C)(C)OC(=O)Nc1ccc(-c2nc(-c3ccc(CC(NS(=O)(=O)c4ccc(C(F)(F)F)cc4[N+](=O)[O-])C(=O)O)cc3F)no2)cc1 (stereo not shown) [Compound 11M]

activation at 10 µM [3]: > 60%
Compound: Cc1ccc(-c2cccc(C(=O)NC(Cc3ccc(-c4noc(-c5ccc(NC(=O)OC(C)(C)C)cc5)n4)c(F)c3)C(=O)O)c2)cc1 (stereo not shown) [Compound 11N]

activation at 10 µM [3]: > 60%
Compound: CC(C)(C)OC(=O)Nc1ccc(-c2nc(-c3ccc(CC(NC(=O)c4ccc(-c5ccc(C(F)(F)F)cc5)o4)C(=O)O)cc3F)no2)cc1 (stereo not shown) [Compound 11O]

activation at 10 µM [3]: 20 to 40%
Compound: CC(C)(C)OC(=O)Nc1ccc(-c2nc(-c3ccc(CC(NC(=O)c4ccc(-c5ccc(F)cc5)s4)C(=O)O)cc3F)no2)cc1 (stereo not shown) [Compound 11P]

activation at 10 µM [3]: > 60%
Compound: Cc1ccc(CN2CCN(C(=O)NC(Cc3ccc(-c4noc(-c5ccc(NC(=O)OC(C)(C)C)cc5)n4)c(F)c3)C(=O)O)CC2)cc1 (stereo not shown) [Compound 11Q]

activation at 10 µM [3]: > 60%
Compound: CC(C)(C)OC(=O)Nc1ccc(-c2nc(-c3ccc(CC(NC(=O)C4CCN(C(=O)OC(C)(C)C)CC4)C(=O)O)cc3F)no2)cc1 (stereo not shown) [Compound 11R]

activation at 10 µM [3]: > 60%
Compound: CC(C)(C)OC(=O)Nc1ccc(-c2nc(-c3ccc(CC(NC(=O)Nc4cc(-c5ccccc5)n[nH]4)C(=O)O)cc3F)no2)cc1 (stereo not shown) [Compound 11S]

activation at 10 µM [3]: 40 to 60%
Compound: CC(C)(C)OC(=O)Nc1ccc(-c2nc(-c3ccc(CC(NC(=O)CN4CCN(C(=O)OC(C)(C)C)CC4)C(=O)O)cc3F)no2)cc1 (stereo not shown) [Compound 11T]

activation at 10 µM [3]: 20 to 40%
Compound: CN1CCN(c2ccc(C(=O)NC(Cc3ccc(-c4noc(-c5ccc(NC(=O)OC(C)(C)C)cc5)n4)c(F)c3)C(=O)O)o2)CC1 (stereo not shown) [Compound 11U]

activation at 10 µM [3]: > 60%
Compound: CC(C)(C)OC(=O)Nc1ccc(-c2nc(-c3ccc(CC(NC(=O)c4cn(-c5ccc(C(C)(C)C)cc5)nn4)C(=O)O)cc3F)no2)cc1 (stereo not shown) [Compound 11V]

activation at 10 µM [3]: 40 to 60%
Compound: CC(C)(C)OC(=O)Nc1ccc(-c2nc(-c3ccc(CC(NS(=O)(=O)N4CCN(C(=O)OC(C)(C)C)CC4)C(=O)O)cc3F)no2)cc1 (stereo not shown) [Compound 11W]

activation at 10 µM [3]: > 60%
Compound: CC(C)(C)OC(=O)Nc1ccc(-c2nc(-c3ccc(CC(NS(=O)(=O)N4CCN(c5ccccc5)CC4)C(=O)O)cc3F)no2)cc1 (stereo not shown) [Compound 11X]

activation at 10 µM [3]: 20 to 40%
Compound: CC(C)(C)OC(=O)Nc1ccc(-c2nc(-c3ccc(CC(NC(=O)c4cccc(N5CCCCC5)c4)C(=O)O)cc3F)no2)cc1 (stereo not shown) [Compound 11Y]

activation at 10 µM [3]: 40 to 60%
Compound: CC(C)(C)OC(=O)Nc1ccc(-c2nc(-c3ccc(CC(NS(=O)(=O)NCc4ccccc4)C(=O)O)cc3F)no2)cc1 (stereo not shown) [Compound 11Z]

activation at 10 µM [3]: > 60%
Compound: CC(C)(C)OC(=O)Nc1ccc(-c2nc(-c3ccc(CC(NC(=O)N4CCN(c5ccc(C(F)(F)F)cc5)CC4)C(=O)O)cc3F)no2)cc1 (stereo not shown) [Compound 12A]
